Reference: patent US7241791B2, “Substituted 4-(indazol-3-yl)phenols” (Wyeth, priority 2002, dated 2007)

How the values were obtained:
human ERα [1] = target: T1, human ERα (Homo sapiens, UniProt P03372); assay: NF-κB luciferase reporter (ER/NF-KB-luc) in Ad5-wt-hERα infected HAECT-1 cells; settings: for IC50: ER/NF-KB-luc IC50, Ad5-wt-ER infected HAECT-1 cells, IL-1β; for Emax: HAECT1, read-out: ER/NF-KB-luc % E2, efficacy relative to the maximal inhibition observed with E2
T1 sequence (P03372 1-595): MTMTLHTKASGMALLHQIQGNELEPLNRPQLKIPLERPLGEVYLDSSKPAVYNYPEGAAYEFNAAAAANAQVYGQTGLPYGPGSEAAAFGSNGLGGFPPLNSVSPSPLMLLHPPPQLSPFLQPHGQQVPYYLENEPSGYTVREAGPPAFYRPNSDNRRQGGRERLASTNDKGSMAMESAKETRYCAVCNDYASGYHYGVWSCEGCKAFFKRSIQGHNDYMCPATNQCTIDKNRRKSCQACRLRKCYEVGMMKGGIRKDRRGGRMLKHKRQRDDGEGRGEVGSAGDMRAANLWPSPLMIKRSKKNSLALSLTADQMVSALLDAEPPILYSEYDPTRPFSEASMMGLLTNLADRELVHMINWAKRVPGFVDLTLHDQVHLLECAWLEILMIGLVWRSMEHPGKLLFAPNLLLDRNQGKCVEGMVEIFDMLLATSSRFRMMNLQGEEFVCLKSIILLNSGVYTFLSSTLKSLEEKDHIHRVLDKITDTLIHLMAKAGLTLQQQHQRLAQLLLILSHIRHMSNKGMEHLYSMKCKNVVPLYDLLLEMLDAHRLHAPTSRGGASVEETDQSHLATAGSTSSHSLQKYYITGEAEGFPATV

human ERα [2] = target: T1, human ERα; assay: IL-6 expression (ELISA, ER/IL-6) in Ad5-wt-hERα infected HAECT-1 cells; settings: for ER/IL-6 % E2: efficacy relative to the maximal inhibition observed with E2
human ERα [3] = target: T1, human ERα; assay: Creatine kinase expression (ER/CK) in Ad5-wt-hERα infected HAECT-1 cells; settings: for ER/CK % E2: efficacy relative to the maximal stimulation observed with E2

Row | SMILES | IC50 (human ERα [1]) | Emax (human ERα [1]) | IC50 (human ERα [2]) | ER/IL-6 % E2 (human ERα [2]) | EC50 (human ERα [3]) | ER/CK % E2 (human ERα [3])
1 | CCCCn1nc(-c2ccc(O)cc2)c2ccccc21 [Example 139, 4-(1-butyl-1H-indazol-3-yl)phenol] | 183 nM | 67% | 329 nM | 40 % E2 | 722 nM | 36 % E2
2 | Oc1ccc(-c2nn(-c3ccccc3Cl)c3cc(O)ccc23)c(O)c1 [Example 16, 4-[1-(2-chlorophenyl)-6-hydroxy-1H-indazol-3-yl]benzene-1,3-diol] | 95 nM | 79% | 81 nM | 58 % E2 | 438 nM | 45 % E2
3 | Cn1nc(-c2ccc(O)cc2)c2cccc(Cl)c21 [Example 126, 4-(7-chloro-1-methyl-1H-indazol-3-yl)phenol] | 134 nM | 85% | 122 nM | 52 % E2 | 387 nM | 52 % E2
4 | Oc1ccc(-c2nn(Cc3ccccc3)c3c(F)cccc23)cc1 [Example 145, 4-(1-benzyl-7-fluoro-1H-indazol-3-yl)phenol] | 125 nM | 66% | 97 nM | 60 % E2 | 439 nM | 48 % E2
5 | Oc1ccc(-c2n[nH]c3cc(Cl)c(F)cc23)cc1 [Example 131, 4-(6-chloro-5-fluoro-1H-indazol-3-yl)phenol] | 195 nM | 82% | 380 nM | 72 % E2 | 815 nM | 65 % E2
6 | Oc1ccc(-c2nn(-c3ccc(OC(F)(F)F)cc3)c3cc(O)ccc23)c(O)c1 [Example 13, 4-{6-hydroxy-1-[4-(trifluoromethoxy)phenyl]-1H-indazol-3-yl}benzene-1,3-diol] | 133 nM | 97% | 601 nM | 83 % E2 | 828 nM | 47 % E2
7 | COc1ccccc1-n1nc(-c2ccc(O)cc2O)c2ccc(O)cc21 [Example 12, 4-[6-hydroxy-1-(2-methoxyphenyl)-1H-indazol-3-yl]benzene-1,3-diol] | 208 nM | 61% | 7610 nM | 73 % E2 | 1200 nM | 58 % E2
8 | N#Cc1ccc(-n2nc(-c3ccc(O)cc3O)c3ccc(O)cc32)cc1 [Example 15, 4-[3-(2,4-dihydroxyphenyl)-6-hydroxy-1H-indazol-1-yl]benzonitrile] | 164 nM | 94% | 8130 nM | 110 % E2 | – | –
9 | COc1ccc(-n2nc(-c3ccc(O)cc3O)c3ccc(O)cc32)cc1 [Example 11, 4-[6-hydroxy-1-(4-methoxyphenyl)-1H-indazol-3-yl]benzene-1,3-diol] | 60 nM | 54% | 2320 nM | 91 % E2 | 114 nM | 26 % E2
10 | Oc1ccc(-c2nn(-c3cccc(Br)c3)c3cc(O)ccc23)c(O)c1 [Example 14, 4-[1-(3-bromophenyl)-6-hydroxy-1H-indazol-3-yl]benzene-1,3-diol] | 53 nM | 73% | 761 nM | 67 % E2 | – | –
11 | Oc1ccc(-c2nn(-c3ccc(Br)cc3)c3cc(O)ccc23)c(O)c1 [Example 7, 4-[1-(4-bromophenyl)-6-hydroxy-1H-indazol-3-yl]benzene-1,3-di I] | 90 nM | 92% | 246 nM | 77 % E2 | 1830 nM | 54 % E2
12 | Oc1ccc(-c2nn(Cc3ccccc3)c3c(Cl)cccc23)c(O)c1 [Example 149, 4-(1-benzyl-7-chloro-1H-indazol-3-yl)benzene-1,3-diol] | 319 nM | 67% | 115 nM | 49 % E2 | 527 nM | 30 % E2
13 | Cn1nc(-c2ccc(O)cc2)c2cccc(C(F)(F)F)c21 [Example 169, 4-[1-methyl-7-(trifluoromethyl)-1H-indazol-3-yl]phenol] | 65 nM | 69% | 65 nM | 65 % E2 | 364 nM | 38 % E2
14 | CCCCn1nc(-c2ccc(O)cc2)c2ccc(C(F)(F)F)cc21 [Example 198, 4-[1-butyl-6-(trifluoromethyl)-1H-indazol-3-yl]phenol] | 303 nM | 100% | – | – | 1000 nM | 30 % E2
15 | Cc1cc(O)ccc1-c1nn(C2CCCC2)c2c(-c3ccc(O)c(O)c3)cccc12 [Example 259, 4-[1-cyclopentyl-3-(4-hydroxy-2-methylphenyl)-1H-indazol-7-yl]benzene-1,2-diol] | 18 nM | 73% | – | – | 143 nM | 38 % E2
16 | Cn1nc(-c2ccc(O)cc2O)c2cccc(Cl)c21 [Example 170, 4-(7-chloro-1-methyl-1H-indazol-3-yl)benzene-1,3-diol] | 276 nM | 77% | – | – | 827 nM | 28 % E2
17 | Cc1cccc2c(-c3ccc(O)cc3)n[nH]c12 [Example 34, 4-(7-methyl-1H-indazol-3-yl) phenol] | 66 nM | 115% | – | – | 137 nM | 87 % E2
18 | CC(C)(C)OC(=O)NCC(=O)NCC(=O)Oc1ccc(-c2nn(C3CCCC3)c3c(F)cccc23)cc1 [Example 116, 4-(1-cyclopentyl-7-fluoro-1H-indazol-3-yl)phenyl N-(tert-butoxycarbonyl)glycylglycinate] | 140 nM | 63% | – | – | 229 nM | 25 % E2
